Tested on: HEK293 cells
Test: Evaluation of AAV vector-producing ability by treatment with chemical substance (rAAV1 virus titer by qPCR)
Assay type: cell-based, human
Settings: HEK293 cells producing rAAV1, serum-free E-MEM with chemical substance at various concentrations, 3 days culture, virus titer (v.g.) vs untreated control
Procedure: The cells of the immortalized cell line derived from the human embryonic kidney (HEK293 cells) purchased from ATCC (American Type Culture Collection) were cultured in E-MEM supplemented with 10% fetal bovine serum, penicillin, and streptomycin at 37° C. in the presence of 5% CO2.
The recombinant adeno-associated virus 1 (rAAV1) was prepared with the use of 3 types of plasmids: pAAV-ZsGreen1 (TaKaRa Bio), pAAV2/1, and pHelper. A mixture of 3 types of plasmids for preparation of rAAV1 was adjusted to bring the mixing ratio of DNA to Polyethylenimine Max (PEI:Polysciences) (DNA:PEI) to 1:2 in OPTI-MEM, and the reaction was allowed to proceed at room temperature for 15 minutes. […]
Genome DNA of rAAV1 was extracted to measure the virus titer. […] The virus titer was measured by real-time PCR in triplicate. qPCR was performed using primers targeting Zs-Green 1. […]
In the present example, effects of enhancing production of AAV vectors achieved with the use of chemical substances different from the chemical substances tested in Example 1 were measured in the same manner as in Example 1.
In the present comparative example, effects of enhancing production of AAV vectors were measured in the same manner as in Example 1, except for the use of ascorbic acid (2.5, 5, or 10 μg/ml) disclosed in the examples of WO 2021/138387. […]

## O=C1O[C@H]([C@@H](O)CO)C(O)=C1O [ascorbic acid]
  effects of enhancing the amount of production of AAV vectors: no significant differences were observed
